Source: patent US20170112940A1, “Modified Collagen Hybridizing Peptides And Uses Thereof” (University of Utah Research Foundation, priority 2015, published 2017)

Columns and labels:
[1] = Melting temperature (melting curve) of the peptides in 1× PBS; assay type: physicochemical; conditions: FIG. 1
Experimental: The sample concentration tested is 200 uM. 7 is Ac-GPO-GPO-GPO-GPO-GPO-GPO-GPO (This is positive control). 7-1azGly is Ac-GPO-GPO-GPO-azGlyPO-GPO-GPO-GPO. 7-2azGly is Ac-GPO-GPO-azGlyPO-GPO-azGlyPO-GPO-GPO. Melting Temperature of 7 is 54° C. Melting Temperature of 7-1azGly is 65° C. Melting Temperature of 7-2azGly is 77° C.

[2] = system: gelatin; assay: Gelatin binding: peptide remaining on crosslinked gelatin film after binding and washing; conditions: FIG. 3
Experimental: 10: 10 μM added to crosslinked gelatin gel. […] 7 is CF-GGG-GPO-GPO-GPO-GPO-GPO-GPO-GPO (positive control). […] 7-2azGly is CF-GGG-GPO-GPO-azGlyPO-GPO-azGlyPO-GPO-GPO. Random9 is Scramble sequence of CF-GGG-(GPO)9 The sequence is CF-GGG-PGO-GPG-POP-OGO-GOP-PGO-OPG-GOO-PPG. (negative control).

[3] = system: Denatured Collagen; assay: Fluorescent staining of SDS-PAGE, denatured collagen lanes; assay type: binding; conditions: SDS-PAGE stained with 35 μM peptide, 5 ug and 10 ug denatured collagen (lanes 3 and 4), FIG. 4
Experimental: (§1) FIGS. 4A and 4B show A) Fluorescent image of SDS-PAGE stained with 35 μM of CFG3(GPO)3AzGPO(GPO)3; B) SDS-PAGE stained with Commassie Blue. Lane 1: MW marker, Lane 2: 50 ug BSA, Lane 3: 5 ug Denatured Collagen (col), Lane 4: 10 ug Denatured Collagen (col). Commasie blue (4B) stains collagen (Lanes 3 and 4) as well as BSA (lane 2).

[4] = target: BSA (Bos taurus, UniProt P02769); assay: Fluorescent staining of SDS-PAGE, BSA lane; assay type: binding; conditions: SDS-PAGE stained with 35 μM peptide, 50 ug BSA (lane 2), FIG. 4
Experimental: as §1

[5] = listed as CFG3(GPO)3AzGPO(GPO)3

BSA, sequence (P02769 25-607): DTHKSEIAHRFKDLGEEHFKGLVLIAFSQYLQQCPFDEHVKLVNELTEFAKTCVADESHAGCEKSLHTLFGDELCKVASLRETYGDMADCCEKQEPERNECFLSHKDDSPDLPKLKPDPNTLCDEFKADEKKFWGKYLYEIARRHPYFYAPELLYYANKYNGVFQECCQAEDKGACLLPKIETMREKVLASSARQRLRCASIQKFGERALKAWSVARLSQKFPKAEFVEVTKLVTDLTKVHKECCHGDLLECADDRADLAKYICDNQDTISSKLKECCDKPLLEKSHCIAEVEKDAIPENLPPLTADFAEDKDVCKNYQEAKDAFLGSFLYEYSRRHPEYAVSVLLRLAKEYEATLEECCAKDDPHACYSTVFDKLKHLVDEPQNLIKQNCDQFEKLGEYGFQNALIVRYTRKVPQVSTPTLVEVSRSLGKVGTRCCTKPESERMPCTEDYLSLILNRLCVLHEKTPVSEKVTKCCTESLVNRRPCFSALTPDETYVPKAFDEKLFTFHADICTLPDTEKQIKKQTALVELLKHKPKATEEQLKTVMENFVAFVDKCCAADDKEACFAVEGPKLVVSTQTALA

triple helical structure indicated by sigmoidal shape of the melting curve [1]	Substance	binding affinity to gelatin (comparison in words) [2]	further results
has triple helical structure	Ac-GPO-GPO-GPO-azGlyPO-GPO-GPO-GPO [7-1azGly]	–	–
has triple helical structure	Ac-GPO-GPO-azGlyPO-GPO-azGlyPO-GPO-GPO [7-2azGly]	–	–
–	CF-GGG-GPO-GPO-GPO-azGlyPO-GPO-GPO-GPO [7-1azGly]	much higher than GPO7	staining of / binding to denatured collagen ([3]; listed as Aza-CHP): binds to denatured collagen; staining of / binding to denatured collagen [3, 5]: stains only collagen; staining of / binding to denatured BSA ([4]; listed as Aza-CHP): does not bind to denatured BSA; staining of / binding to denatured BSA [4, 5]: almost no signal from lane 2
–	CF-GGG-GPO-GPO-azGlyPO-GPO-azGlyPO-GPO-GPO [7-2azGly]	further increases the binding affinity to gelatin	–
